Assay results: PMC10713593, “Staphylococcus aureus functional amyloids catalyze degradation of β-lactam antibiotics” (Nature Communications, 2023)
Values joined by “and” are separate entries in the source; they are usually repeats but may differ in a detail not shown here. Identical values can stand only once.

Experiments:
[1] = Nitrocefin hydrolysis kinetics (absorbance of degraded nitrocefin at 480 nm; initial rates V0, Michaelis-Menten fit); format: biochemical; parameters: Initial nitrocefin-degradation reaction rate, V0: unit not given here; details: for Initial nitrocefin-degradation reaction rate, V0: Hepes pH 7.4, average of the six runs
Method: (§1) Nitrocefin, a β-lactam widely used as a surrogate substrate of Penicillin in β-lactamase activity assay, was used as a substrate. NC degradation was monitored for 2 h. Nitrocefin stock solution was dissolved in acetonitrile (20 mM) and then diluted with Hepes buffer (50 mM, pH 7.4) to nitrocefin concentration of 360 µM (further dilutions to lower concentrations were made with the 360 µM NC stock). All nitrocefin samples were kept on ice in cold conditions and any further dilution or mixing was performed in ice-cold conditions to avoid self-hydrolysis background reaction. […] Immediately after mixing the samples, the plate was transferred to 20̊ °C pre-cooled plate reader (Multiskan GO, Thermo Scientific, Waltham, MA) and shaken slowly for 10 s. Then, the absorbance of degraded nitrocefin was measured for 2 h at interval of 20 s at λ = 480 nm. Initial production rates (V0) were calculated by slope of the initial linear range of degraded-nitrocefin production at the first 15 min. The reported results are and average of at least five separate measurements (the exact number of repeats, N, is reported next to the values). Each experiment also included blank samples of nitrocefin substrate diluted with buffer instead of PSMα. […] The initial rate calculations were performed while also subtracting the self-degradation of the substrate, to ensure that this product absorbance is a result of PSMα presence.
The initial rates of degraded-nitrocefin production were calculated from the slopes of the first 15 min of measurement as reported above. The initial rates (V0) were fitted using non-linear regression applied with the solver function in excel, either to Michalis–Menten equation V=Vmax.[S]/(KM+S) Where Vmax. Stands for maximal reaction rate, KM stands for Michalis–Menten constant, [S] stands for the substrate molar concentration. Each initial rate value was presented as average ± SEM. The kinetic parameters were calculated by fitting the data to MM model using non-linear regression, and the confidence intervals for each parameter were calculated accordingly.

[2] = format: physicochemical; details: PSMα3 preformed fibrils 400 µM, titration pH 3 to 10 with NaOH 0.05M (Fig. S10)
[3] = system: T1, a2-PEG17K; assay: Source-data fits for PSMα variants (170 µM): initial rates of nitrocefin hydrolysis (up to 240 µM) by absorbance at 480 nm in 50 mM Hepes pH 7.4 at 20 °C.; format: biochemical; details: read-out: Km [uM] (AVG, source data sheet 2c,d_titration of nitrocefin)
T1 construct: synthetic peptide, pre-assembled; modification not described beyond the name
Method: as §1, with “min.” for “min. The reported results are and average of at least five separate measurements (the exact number of repeats, N, is reported next to the values). Each experiment also included blank samples of nitrocefin substrate diluted with buffer instead of PSMα.”
The initial rates of degraded-nitrocefin production were calculated from the slopes of the first 15 min of measurement as reported above. […]

[4] = system: Staphylococcus aureus (ATCC 25923); assay: Staphylococcus aureus sensitivity to nitrocefin in the presence of PSMα (growth curves, OD 600 nm); format: cell-based; details: nitrocefin 100 µg/mL, LB, 37 °C, 16 h
Method: The antimicrobial activity of nitrocefin against Staphylococcus aureus (ATCC 25923) was examined in the presence or absence of pre-assembled PSMα3, while monitoring the growth of the bacterial strain. PSMα3 fibrils were prepared as described above, in aqueous solution, in concentration of 100 µM. The bacterial growth was monitored in bacterial growth curves prepared as following: 3 µL of S. aureus microbial culture (OD = 1) were added to 100 µL LB media (Difco Luria-Bertani medium, BD, France). The bacterial solution was supplemented with 100 µM of the PSMα3 solution (dissolved and preincubated in DIW) or equivalent volume of DIW as a control. Then, aqueous solution of nitrocefin was added to each sample, generating final concentration of 100 µg/mL. As control, the growth curve of S. aureus was examined without any additives. All the samples were incubated while shaking in sterile clear 96-well plates at 37 °C for 16 h, and the absorbance at 600 nm was monitored every 20 min steps by microplate reader (Varioskan Flash, Thermo Scientific, Waltham, MA). Measurements were performed at three biological replicates, each with five technical replicates. The values were plotted in the graph as mean ± SD of representative results.
Figure S15. The effects of PSMα1 and PSMα4 upon nitrocefin in physiological scenarios. […]

[5] = format: biochemical; details: Aβ42 fibrils 100 µM, nitrocefin 170 µM, A480, two hours (Fig. S2)
[6] = format: biochemical; details: Fap 20 µM, nitrocefin 100 µM, A480, ten hours (Fig. S3)
Method: Figure S3. Cross-β bacterial amyloids of Pseudomonas Aeruginosa. Fap B and Fap C were incubated for seven days at 37 °C for fibrillation. Then, upon appearance of typical turbidity the samples were diluted and nitrocefin was added to the samples, creating solutions of 20 µM Fap and nitrocefin in concentration of 100 µM. The absorbance of the nitrocefin was recorded in microplate reader at 480 nm for ten hours, resulting low absorbance relatively to the PSMα at close mass concentration (w/v, 300 µM). This comparison was necessary due to the major differences in sequence length of the Fap proteins and the short PSMα3 peptide. The results are shown as absorbance rather than product concentration due to the slight turbidity of the Fap samples.
(1 picture or pasted object on this page, not shown here)

CSCC[C@H](N)C(=O)N[C@@H](CCC(=O)O)C(=O)N[C@@H](Cc1ccccc1)C(=O)N[C@H](C(=O)N[C@@H](C)C(=O)N[C@@H](CCCCN)C(=O)N[C@@H](CC(C)C)C(=O)N[C@@H](Cc1ccccc1)C(=O)N[C@@H](CCCCN)C(=O)N[C@@H](Cc1ccccc1)C(=O)N[C@@H](Cc1ccccc1)C(=O)N[C@@H](CCCCN)C(=O)N[C@@H](CC(=O)O)C(=O)N[C@@H](CC(C)C)C(=O)N[C@@H](CC(C)C)C(=O)NCC(=O)N[C@@H](CCCCN)C(=O)N[C@@H](Cc1ccccc1)C(=O)N[C@@H](CC(C)C)C(=O)NCC(=O)N[C@@H](CC(N)=O)C(=O)N[C@@H](CC(N)=O)C(=O)O)C(C)C [PSMα3]
Initial nitrocefin-degradation reaction rate, V0 ([1]; PSMα 4.01424 uM, nitrocefin 60 µM): 0.4242 | Initial nitrocefin-degradation reaction rate, V0 ([1]; PSMα 6.02136 uM, nitrocefin 60 µM): -0.2476 | Initial nitrocefin-degradation reaction rate, V0 ([1]; PSMα 9.03205 uM, nitrocefin 60 µM): 0.6132 | Initial nitrocefin-degradation reaction rate, V0 ([1]; PSMα 13.5481 uM, nitrocefin 60 µM): 1.028 | Initial nitrocefin-degradation reaction rate, V0 ([1]; PSMα 20.3221 uM, nitrocefin 60 µM): 0.7515 | Initial nitrocefin-degradation reaction rate, V0 ([1]; PSMα 30.4832 uM, nitrocefin 60 µM): -1.835 | Initial nitrocefin-degradation reaction rate, V0 ([1]; PSMα 45.7247 uM, nitrocefin 60 µM): 5.684 | Initial nitrocefin-degradation reaction rate, V0 ([1]; PSMα 68.5871 uM, nitrocefin 60 µM): 8.525 | Initial nitrocefin-degradation reaction rate, V0 ([1]; PSMα 102.881 uM, nitrocefin 60 µM): 29.1642 | Initial nitrocefin-degradation reaction rate, V0 ([1]; PSMα 154.321 uM, nitrocefin 60 µM): 32.1116 | Initial nitrocefin-degradation reaction rate, V0 ([1]; PSMα 231.481 uM, nitrocefin 60 µM): 46.236 | Initial nitrocefin-degradation reaction rate, V0 ([1]; PSMα 347.222 uM, nitrocefin 60 µM): 69.7594 | nitrocefin degradation yield (turnover) ([1]; nitrocefin 60 µM, PSMα assemblies 350 µM, Hepes 50 mM pH 7.4, 20 °C, A480, monitored 2 h (Fig. 2a)): 75% | initial rate of nitrocefin degradation reaction (V0) ([1]; peptide 170 µM, initial nitrocefin 107 µM, Hepes 50 mM pH 7.4, 20 °C, first 15 min (Fig. 3f)): around 60 µM/h | time to degrade the entire nitrocefin reservoir ([1]; peptide 170 μM, nitrocefin 107 µM, Hepes pH 7.4 (Fig. 3e)): ~ 40 min | pKa of the amines (first value) [2]: 7.8 | pKa of the amines (second value) [2]: 8.1 | ATR-FTIR amide-I peak/maximum: 1660 cm⁻¹ and 1650 cm⁻¹

O=C(Cc1cccs1)N[C@@H]1C(=O)N2C(C(=O)O)=C(/C=C/c3ccc([N+](=O)[O-])cc3[N+](=O)[O-])CS[C@H]12 [nitrocefin, 3-(2,4-Dinitrostyryl)-(6R,7R)-7-(2-thienylacetamido)-ceph-3-em-4-carboxylic acid]
Km [3]: 2740 µM

O=C(Cc1cccs1)N[C@@H]1C(=O)N2C(C(=O)O)=C(C=Cc3ccc([N+](=O)[O-])cc3[N+](=O)[O-])CS[C@H]12 [nitrocefin, 3-(2,4-Dinitrostyryl)-(6R, 7R)−7-(2-thienylacetamido)-ceph-3-em-4-carboxylic Acid]
effect of nitrocefin on bacterial growth [4]: significantly reduced bacterial proliferation

β-amyloid fibrils: Amyloid-β sequence 1-42 fibrils, control cross-β amyloid
β-lactam (nitrocefin) degradation by control amyloid [5]: very low β-lactam degradation

B1: FapB: cross-β Pseudomonas Aeruginosa-originated bacterial amyloid (protein, UniProt Q9I2E9 20-189, looked up)
Functional amyloid subunit …: DPLASRNRASIDDSGTYRGNFALNQAAGDAQQQSNVRVVAVGSAALVGSDQRQHLQLDASQPIAASASISGAALRGSGILGVNQGAGLGNQQINAFRLSLSNGPESLDDSVLAQSVALTKVSGSATPVPGGRSVSTDDRAFAGSSGVVQVNQSAGVGNQSMNTLSVRVME
nitrocefin degradation by cross-β bacterial amyloids [6]: minor nitrocefin degradation

B2: FapC: cross-β Pseudomonas Aeruginosa-originated bacterial amyloid (protein, UniProt Q9I2F0 25-340, looked up)
Functional amyloid subunit …: GNEGGWHPPKPNPQSNNKGGATALVVDTQQNYNNKVSNFGTLNNASVSGSIKDASGNVGVNVAAGDNNQQANAAALASADASFVFGTATASTSVLQSGYGNTLNNYSNPNTASLSNSANNVSGNLGVNVAAGNFNQQKNDLAAAVSNGQYSTAGSAASQTSTGNTTVNSANYAYGGTYVSLKLNADGSYKGTSDQIGDVYLDTWEGQTHPGGSNTGHIDVDSQAQGAKDLNHDGGAFAFKEKGDVDLKGTVSGFIPAIVGFKTPVTNNASLSNSLQNVSGNVGVNIAAGGGNQQSNSLSIAAGCSSCPAGGESLGF
nitrocefin degradation by cross-β bacterial amyloids [6]: minor nitrocefin degradation
